# Data published in patent US9732071B2, “Compounds useful as modulators of TRPM8” (Senomyx, Inc., priority 2015, dated 2017).
# Like-named read-outs stand apart in the source and are kept apart here.
# Tests used:
# [1] = molecular target: T1, hTRPM8 (Homo sapiens, UniProt Q7Z2W7); assay: hTRPM8 agonist assay in a mammalian cell line stably expressing hTRPM8; assay type: cell-based
# T1 construct: expressed in transfected cells
# Experimental: A mammalian cell line derivative which stably expresses hTRPM8 was used in biological assays in association with testing the present compounds with cool-tasting or -feeling properties (Servant et al. US 2007/0259354 A1 and references cited therein). Typical compound concentrations tested were 100 μM, 30 μM, 10 μM, 3.3 μM, 1.1 μM, 0.37 μM, 0.12 μM, 0.04 μM, 0.01 μM and more dilutions for very potent compounds. The present compounds have shown strong activity as agonists of hTRPM8. […] For the sake of comparison, the EC50 of Comparative Compound 1, which was previously disclosed in U.S. 2013/0324557 A1 and has the structure
# [2] = Solubility studies; assay type: physicochemical
# Experimental: For the sake of comparison, the solubility of Comparative Compound 1, which was previously disclosed in U.S. 2013/0324557 A1, was also measured.
# [3] = tested on: panelists; assay: Cool Line Scale Test (sensory study, cooling intensity versus 45 μM WS-3); assay type: in vivo, human; details: for Sensory Results: cooling compared with 45 μM WS-3: 5 μM compound, Low Sodium Buffer pH ~7.1, 0.1% ethanol, 15 point line scale; for lingering effect: cool line scale test
# Experimental: A typical sensory study is described below followed by Table 5 summarizing sensory results of Compounds 101-105.
# All samples made with Low Sodium Buffer (LSB) pH ˜7.1 and contain 0.1% ethanol.
# Compounds are rated on a 15 point line scale where 45 μM WS-3 (N-Ethyl-p-menthane-3-carboxamide) is ranked as a 5 in cool intensity. In most cases, the compounds are tested to determine at what concentration the cooling intensity is equivalent to 45 μM WS-3. In each test, the panelist is presented with a 0 μM control sample, a 45 μM WS-3 control sample and the experimental compound sample and asked to rate the cooling intensity of each sample. [0218]
# [4] = cell line stably expressing hTRPM8, read-out: EC50
# [5] = pH 7.1, aqueous buffer, read-out: Solubility (pH 7.1)
# [6] = aqueous buffer, pH 4.0, read-out: Solubility (pH 4.0)
# T1 sequence (Q7Z2W7 whole entry): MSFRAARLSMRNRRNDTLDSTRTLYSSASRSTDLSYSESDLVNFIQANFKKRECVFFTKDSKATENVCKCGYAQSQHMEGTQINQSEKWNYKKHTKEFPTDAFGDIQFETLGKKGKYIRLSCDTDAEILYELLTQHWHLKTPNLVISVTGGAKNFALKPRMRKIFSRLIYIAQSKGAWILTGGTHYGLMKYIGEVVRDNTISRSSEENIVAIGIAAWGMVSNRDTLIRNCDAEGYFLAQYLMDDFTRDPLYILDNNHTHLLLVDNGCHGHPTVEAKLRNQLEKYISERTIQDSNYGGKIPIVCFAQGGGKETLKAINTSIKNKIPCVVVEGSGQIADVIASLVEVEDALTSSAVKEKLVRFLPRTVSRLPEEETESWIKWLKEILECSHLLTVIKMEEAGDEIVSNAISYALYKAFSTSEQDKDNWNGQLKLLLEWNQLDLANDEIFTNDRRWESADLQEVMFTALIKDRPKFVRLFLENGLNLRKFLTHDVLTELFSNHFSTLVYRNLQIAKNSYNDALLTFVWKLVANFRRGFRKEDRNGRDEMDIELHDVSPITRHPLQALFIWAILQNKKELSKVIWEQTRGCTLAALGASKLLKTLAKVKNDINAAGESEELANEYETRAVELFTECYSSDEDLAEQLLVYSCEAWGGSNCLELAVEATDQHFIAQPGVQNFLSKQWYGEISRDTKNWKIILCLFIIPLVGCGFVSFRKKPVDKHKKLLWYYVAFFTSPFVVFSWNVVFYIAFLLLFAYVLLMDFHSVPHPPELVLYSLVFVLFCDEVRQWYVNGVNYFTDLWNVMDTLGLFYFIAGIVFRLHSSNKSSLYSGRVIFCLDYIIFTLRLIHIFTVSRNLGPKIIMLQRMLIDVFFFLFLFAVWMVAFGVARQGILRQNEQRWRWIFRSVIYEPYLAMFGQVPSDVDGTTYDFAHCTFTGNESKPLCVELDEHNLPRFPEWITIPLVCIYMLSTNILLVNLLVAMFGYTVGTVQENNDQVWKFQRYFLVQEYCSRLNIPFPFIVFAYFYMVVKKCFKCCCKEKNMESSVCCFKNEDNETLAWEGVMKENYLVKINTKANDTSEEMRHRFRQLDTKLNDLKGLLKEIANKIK
SMILES,"EC50 [1, 4]",Solubility (pH 7.1) [2],"solubility [2, 5]","solubility [2, 6]",Solubility (pH 4.0) ([2]; pH 4.0),Sensory Results: cooling compared with 45 μM WS-3 [3],lingering effect [3],EC50 [1]
"O=C(COc1ccc(F)cc1)N(Cc1cccs1)c1cc[nH]n1 [Compound 102, 2-(4-flourophenoxy)-N-(1H-pyrazol-5-yl)-N-(thiophen-2-ylmethyl)acetamide]",10.7 nM,unexpectedly superior solubility,503 µM,,,,,
"Cc1cccc(OCC(=O)N(Cc2cccs2)c2cc[nH]n2)c1 [Compound 101, N-(1H-pyrazol-3-yl)-N-(thiophen-2-ylmethyl)-2-(m-tolyloxy)acetamide]",6.1 nM,,152 µM,517 µM,unexpectedly superior solubility,,,
"Cc1ccc(OCC(=O)N(Cc2cccs2)c2ccn[nH]2)cc1 [Comparative Compound 1, reference compound]",0.3 nM,,171 µM,106 µM,,,,
"CCc1ccc(OCC(=O)N(Cc2cccs2)c2cc[nH]n2)cc1 [Compound 104, 2-(4-ethylphenoxy)-N-(1H-pyrazol-3-yl)-N-(thiophen-2-ylmethyl)acetamide]",< 1 nM,,,,,significantly more cooling,unexpected lingering effect,
"Cc1ccc(OCC(=O)N(Cc2cccs2)c2cc[nH]n2)cc1C [Compound 105, 2-(3,4-dimethylphenoxy)-N-(1H-pyrazol-3-yl)-N-(thiophen-2-ylmethyl)acetamide]",,,,,,,unexpected lingering effect,0.7 nM
"COc1ccc(OCC(=O)N(Cc2cccs2)c2cc[nH]n2)cc1 [Compound 103, 2-(4-methoxyphenoxy)-N-(1H-pyrazol-3-yl)-N-(thiophen-2-ylmethyl)acetamide]",4.9 nM,unexpectedly superior solubility,403 µM,,,equivalent to the cooling 45,unexpected lingering effect,
